Reference: article PMC8162404, “Proteomimetic surface fragments distinguish targets by function” (Chemical Science, 2020)

What was measured:
RecQ-WH = biological target: T1, RecQ-WH (Escherichia coli, UniProt P15043); test: Pull-down assay with immobilized protein and LSM libraries; design: species or system E. coli; details: H14 library; 1:1 binding assumed; read-out: Surface mapping KD (apparent)
T1 construct: coding for residues 408– 523 of E. coli RecQ; made in house; host or cells: E. coli BL21(DE3)
T1 sequence (P15043 408-523): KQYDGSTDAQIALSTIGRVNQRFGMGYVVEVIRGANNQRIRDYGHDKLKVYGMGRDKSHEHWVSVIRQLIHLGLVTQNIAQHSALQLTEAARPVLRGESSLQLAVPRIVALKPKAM
Experimental: Pull-down assays with immobilized test proteins and foldameric LSM libraries were carried out. Proteins were equilibrated with LSM probes, and equilibrium bound fractions (FB) were determined from the unbound fractions measured by HPLC-MS methods. Hits were corrected with background binding of the resin. The protocol allowed all binding events to equilibrate irrespective of affinity, specificity, and binding kinetics. This was essential to judge overall druggability and promiscuity. Importantly, the concentration of protein and the total concentration of foldameric LSMs were equimolar, which minimized competition between the probes. This experimental setup approximated independent binding of individual library members. Results were visualized as heat maps of dissociation constants (Fig. 3).
Pull-down assay and data analysis
Pull-down assay. LSM sublibraries were screened separately as previously described.(2) Experiments were performed in the following buffers: (i) 20 mM pH 7.4 HEPES, 150 mM NaCl, 5 mM CaCl2 for CaM; (ii) 50 mM pH 7.4 HEPES, 150 mM NaCl, 1 mM TCEP, 1 mM CaCl2 for S100 proteins; (iii) 20 mM pH 7.4 HEPES, 150 mM NaCl, 1 mM TCEP for Gal-1 and (iv) 20 mM pH 7.4 HEPES, 150 mM NaCl for RecQ-WH. Assays were performed in paper filter spin cups (Thermo Scientific) with sample volumes of 100 µl. Hexahistidine-tagged proteins were immobilized on previously washed Co-NTA resin (TALON, Takara Bio USA, Inc., Mountain View, CA) in 64 µM final concentration. LSM sublibrary was added, in which each of the 64 library members were used at a concentration of 1 µM. Samples were incubated at room temperature for 30 min with shaking at 100 rpm. Then, samples were centrifuged at 1000 rpm for 2 min and washed with 100 µl pull-down buffer to remove unbound compounds.
The control experiments were performed using the same compounds and the resin but without the immobilized protein. In case of competitive assays, competitor peptides were added to LSM sublibrary samples in 200 µM final concentration. In the case of Gal-1, lactose (competitor) was used in a concentration of 10 mM. Experiments were performed at least twice. Mean […]
LC-MS methods and parameters. HPLC/ESI-MS analysis was used to characterize the samples from the pull-down assay. LC-MS analysis was performed with a Thermo Scientific Dionex UltiMate 3000 HPLC system interfaced to an LTQ ion trap mass spectrometer (Thermo Electron Corp., San Jose, CA, USA). Samples were injected onto an Aeris Widepore XB-C18 (250 x 4.6 mm) analytical HPLC column using gradient elution 5-80 % solution B during 25 minutes. For pull-down samples, eluent composition was 0.1% acetic acid in distilled water (Solution A) and 0.1% acetic acid in acetonitrile (solution B). Mass spectra were acquired in full scan mode from 200 to 2000 m/z range. For overlapping peaks, selective reaction monitoring (SRM) was […]
MS data analysis. Thermo Xcalibur 2.2 software was used for peak identification and integration. The majority of the foldameric fragments could be resolved independently via HPLC-MS/MS measurements based on molecular weight, MS fragmentation pattern and retention time. Peaks of some foldamers with β3-hIle or β3-hLeu in position R2 could not be resolved, these were integrated and averaged. In the processing method, each sample component was associated to a chromatographic peak based on previously identified mass (m/z) and retention time (ref (2) and Table S7-10). Using ICIS peak detection algorithm, the general detection and integration criteria were: smoothing points: 5, baseline window: 80, area noise factor: 5, peak noise factor: 10. Using these processing setups, all raw data files were reprocessed together and analyzed. Errors in peak identification during the automatic processing were corrected manually.
Calculation of the discussed parameters
1. Bound fractions (FB.) were calculated from the HPLC-MS intensity loss of the LSM probes compared to the control where no protein was immobilized to the resin: […]

Gal-1 [1] = biological target: T2, Gal-1 (Homo sapiens, UniProt P09382); test: Competition pull-down with lactose; type: binding; details: H14 library; lactose 10 mM; read-out: Surface mapping KD (apparent), competition
T2 construct: made in house; host or cells: E. coli BL21(DE3)
T2 sequence (P09382 whole entry): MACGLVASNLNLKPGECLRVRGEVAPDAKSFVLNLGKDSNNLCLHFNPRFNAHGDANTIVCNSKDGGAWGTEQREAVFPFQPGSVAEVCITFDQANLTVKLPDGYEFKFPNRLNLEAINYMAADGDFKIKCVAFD
Method in brief: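 His6-tagged proteins immobilized on Co-NTA resin at 64 µM final with 64-member LSM foldamer sublibraries (1 M each, as printed) in pH 7.4 HEPES/NaCl buffers (Ca2+/TCEP per target), 30 min RT; competitor peptides 200 µM final, lactose 10 mM for Gal-1. Bound fractions from LC-MS loss vs protein-free resin; KD assuming 1:1 binding.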

S100B [2] = biological target: T3, S100B (Homo sapiens, UniProt P04271); test: Competition pull-down with native ligand RSK1 (689–735); type: binding; details: H14 library; competitor peptide 200 µM; read-out: Surface mapping KD (apparent), competition
T3 construct: made in house; host or cells: Escherichia coli BL21(DE3)
T3 sequence (P04271 1-92): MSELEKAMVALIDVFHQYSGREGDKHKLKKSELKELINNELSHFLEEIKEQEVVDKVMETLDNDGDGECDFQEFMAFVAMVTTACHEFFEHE

S100B [3] = biological target: T3, S100B; test: Pull-down assay with immobilized protein and LSM libraries; type: binding; details: for Kd: H14 library, 1:1 binding assumed, read-out: Surface mapping KD (apparent)
Method in brief: (§1)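 Buffers were HEPES pH 7.4 with 150 mM NaCl, plus 1 mM TCEP and 1 mM CaCl2 (50 mM HEPES) for S100A4 and S100B, 1 mM TCEP for Gal-1, and no additive for RecQ-WH. Immobilized protein at 64 µM was equilibrated 30 min with the LSM sublibrary, and unbound probes were measured by LC-MS.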

Gal-1 [4] = biological target: T2, Gal-1; test: as above; type: binding; details: H14 library; 1:1 binding assumed; read-out: Surface mapping KD (apparent)
Method in brief: as §1

S100A4 = biological target: T4, S100A4 (Homo sapiens, UniProt P26447); test: as above; type: binding; details: for Kd: H14 library, 1:1 binding assumed, read-out: Surface mapping KD (apparent)
T4 construct: made in house; host or cells: Escherichia coli BL21(DE3)
T4 sequence (P26447 whole entry): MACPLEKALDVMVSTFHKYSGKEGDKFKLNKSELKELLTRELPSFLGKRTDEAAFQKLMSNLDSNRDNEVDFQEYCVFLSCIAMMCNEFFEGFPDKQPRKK
Method in brief: as §1

CaM [5] = biological target: T5, CaM (Bos taurus, UniProt P62157); test: as above; type: binding, bovine; details: H14 library; 1:2 stoichiometry assumed; read-out: Surface mapping KD (apparent)
T5 construct: made in house; host or cells: E. coli BL21 (DE3)
Method in brief: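 CaM buffer was 20 mM HEPES pH 7.4, 150 mM NaCl, 5 mM CaCl2. LSM sublibrary members ([…]) incubated 30 min, RT, with equimolar His-tagged protein on Co-NTA resin. HPLC-MS measured unbound probes; bound fraction relative to resin-only background gave dissociation constants.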

CaM [6] = biological target: T5, CaM; test: Competition pull-down with native ligand TRPV1-Ct15; type: binding, bovine; details: H14 library; competitor peptide 200 µM; read-out: Surface mapping KD (apparent), competition
[7] = H14 probes selected for validation

Row | SMILES | Kd (RecQ-WH) | Kd (Gal-1 [1]) | Kd (S100B [2]) | Kd (S100B [3]) | Kd (Gal-1 [4]) | Kd (S100A4) | Kd (CaM [5]) | Kd (CaM [6]) | Binding (S100B [3]; H14 probes) | Affinity class of probe (high, medium, low) in pull-down (S100B [3]; [7]) | Binding (S100A4; H14 probes) | Affinity class of probe (high, medium, low) in pull-down (S100A4; [7])
1 | CC(C)C[C@@H](CC(=O)N[C@H]1CCCC[C@@H]1C(N)=O)NC(=O)[C@H]1CCCC[C@@H]1NC(=O)[C@H]1CCCC[C@@H]1NC(=O)C[C@H](C)NC(=O)[C@H]1CCCC[C@@H]1N [H14 AL] | 401 µM | 272 µM | 313 µM | 108 µM | 127 µM | 7 µM | 13 µM |  |  |  |  | 
2 | NC(=O)[C@H]1CCCC[C@@H]1NC(=O)C[C@H](Cc1ccccc1)NC(=O)[C@H]1CCCC[C@@H]1NC(=O)[C@H]1CCCC[C@@H]1NC(=O)C[C@H](CCC(=O)O)NC(=O)[C@H]1CCCC[C@@H]1N [H14 EF] | 241 µM | 430 µM | 126 µM | 476 µM |  |  |  |  |  |  |  | 
3 | NCCCC[C@@H](CC(=O)N[C@H]1CCCC[C@@H]1C(N)=O)NC(=O)[C@H]1CCCC[C@@H]1NC(=O)[C@H]1CCCC[C@@H]1NC(=O)C[C@H](Cc1ccccc1)NC(=O)[C@H]1CCCC[C@@H]1N [H14 FK] | 424 µM | 153 µM | 391 µM | 63 µM | 154 µM | 141 µM | 4 µM |  |  |  |  | 
4 | NC(=O)[C@H]1CCCC[C@@H]1NC(=O)C[C@H](CO)NC(=O)[C@H]1CCCC[C@@H]1NC(=O)[C@H]1CCCC[C@@H]1NC(=O)C[C@H](Cc1ccccc1)NC(=O)[C@H]1CCCC[C@@H]1N [H14 FS] | 303 µM |  | 429 µM | 364 µM |  | 111 µM | 15 µM |  |  |  |  | 
5 | C[C@@H](O)[C@@H](CC(=O)N[C@H]1CCCC[C@@H]1C(N)=O)NC(=O)[C@H]1CCCC[C@@H]1NC(=O)[C@H]1CCCC[C@@H]1NC(=O)C[C@H](Cc1ccccc1)NC(=O)[C@H]1CCCC[C@@H]1N [H14 FT] | 218 µM |  | 333 µM | 274 µM | 348 µM | 135 µM | 11 µM |  |  |  |  | 
6 | CC[C@H](C)[C@@H](CC(=O)N[C@H]1CCCC[C@@H]1C(=O)N[C@H]1CCCC[C@@H]1C(=O)N[C@H](CC(=O)N[C@H]1CCCC[C@@H]1C(N)=O)Cc1ccc(O)cc1)NC(=O)[C@H]1CCCC[C@@H]1N [H14 IY] | 300 µM |  | 156 µM | 74 µM | 258 µM | 20 µM | 15 µM |  |  |  |  | 
7 | CSCC[C@@H](CC(=O)N[C@H]1CCCC[C@@H]1C(N)=O)NC(=O)[C@H]1CCCC[C@@H]1NC(=O)[C@H]1CCCC[C@@H]1NC(=O)C[C@H](CCCCN)NC(=O)[C@H]1CCCC[C@@H]1N [H14 KM] | 459 µM |  | 140 µM | 119 µM |  | 95 µM | 63 µM | 146 µM |  |  |  | 
8 | CSCC[C@@H](CC(=O)N[C@H]1CCCC[C@@H]1C(=O)N[C@H]1CCCC[C@@H]1C(=O)N[C@H](CC(=O)N[C@H]1CCCC[C@@H]1C(N)=O)C(C)C)NC(=O)[C@H]1CCCC[C@@H]1N [H14 MV] | 294 µM | 218 µM | 360 µM | 118 µM | 178 µM | 21 µM | 3 µM |  |  |  |  | 
9 | N=C(N)NCCC[C@@H](CC(=O)N[C@H]1CCCC[C@@H]1C(=O)N[C@H]1CCCC[C@@H]1C(=O)N[C@@H](CCCCN)CC(=O)N[C@H]1CCCC[C@@H]1C(N)=O)NC(=O)[C@H]1CCCC[C@@H]1N [H14 RK] | 486 µM | 323 µM |  | 22 µM |  |  | 22 µM | 249 µM |  |  |  | 
10 | C[C@@H](O)[C@@H](CC(=O)N[C@H]1CCCC[C@@H]1C(=O)N[C@H]1CCCC[C@@H]1C(=O)N[C@H](CC(=O)N[C@H]1CCCC[C@@H]1C(N)=O)Cc1c[nH]c2ccccc12)NC(=O)[C@H]1CCCC[C@@H]1N [H14 TW] | 288 µM | 147 µM | 258 µM | 47 µM | 143 µM | 189 µM | 16 µM |  | binds | medium | does not | low
11 | CC(C)[C@@H](CC(=O)N[C@H]1CCCC[C@@H]1C(=O)N[C@H]1CCCC[C@@H]1C(=O)N[C@H](CC(=O)N[C@H]1CCCC[C@@H]1C(N)=O)Cc1ccc(O)cc1)NC(=O)[C@H]1CCCC[C@@H]1N [H14 VY] | 115 µM |  | 167 µM | 110 µM | 318 µM | 50 µM | 30 µM |  |  |  |  | 
12 | C[C@@H](CC(=O)N[C@H]1CCCC[C@@H]1C(N)=O)NC(=O)[C@H]1CCCC[C@@H]1NC(=O)[C@H]1CCCC[C@@H]1NC(=O)C[C@H](Cc1c[nH]c2ccccc12)NC(=O)[C@H]1CCCC[C@@H]1N [H14 WA] | 293 µM |  | 220 µM | 58 µM |  | 55 µM | 3 µM | 307 µM |  |  |  | 
13 | C[C@@H](CC(=O)N[C@H]1CCCC[C@@H]1C(N)=O)NC(=O)[C@H]1CCCC[C@@H]1NC(=O)[C@H]1CCCC[C@@H]1NC(=O)C[C@H](Cc1ccc(O)cc1)NC(=O)[C@H]1CCCC[C@@H]1N [H14 YA] | 329 µM |  | 436 µM |  | 342 µM | 217 µM | 15 µM | 366 µM |  |  |  | 
14 | N=C(N)NCCC[C@@H](CC(=O)N[C@H]1CCCC[C@@H]1C(N)=O)NC(=O)[C@H]1CCCC[C@@H]1NC(=O)[C@H]1CCCC[C@@H]1NC(=O)C[C@H](Cc1ccc(O)cc1)NC(=O)[C@H]1CCCC[C@@H]1N [H14 YR] | 421 µM | 309 µM |  | 67 µM | 377 µM | 117 µM | 11 µM | 117 µM |  |  |  | 
